This data set can be described thus: Study A: blood-brain barrier penetration, MetaQuant microdialysis of left and right striatum after oral administration. It counts as in vivo, mouse (C57Bl/6). Particulars: for average peak levels in left and right striatal dialysate: freely-moving adult male C57Bl/6 mice, corrected for dilution, not for recovery; for time of average peak levels in striatal dialysate after compound administration: mice, left and right striatum. The method, then: The present study was designed to determine the free concentration of the compound of formula (I) in the left and right striatum of freely-moving adult male mice after oral administration.
Adult male C57Bl/6 mice (22-28 g; Envigo, the Netherlands) were used for the experiments. Following arrival, animals were housed in groups of 5 in polypropylene cages (40×50×20 cm) with wire mesh top in a temperature (22±2° C.) and humidity (55±15%) controlled environment on a 12 hour light cycle (07.00-19.00). Following surgery, animals were housed individually (cages 30×30×40 cm). Standard diet (SDS Diets, RM1 PL) and domestic quality mains water were available ad libitum.
Mice were anesthetized using isoflurane (2% and 500 mL/min O2). Before surgery, Finadyne (1 mg/kg, s.c.) was administered for analgesia during surgery and the post-surgical recovery period. A mixture of bupivacaine and epinephrine was used for local analgesia of the incision site.
The animals were placed in a stereotaxic frame (Kopf instruments, USA). MetaQuant microdialysis probes with a 3 mm exposed polyacrylonitrile membrane (MQ-PAN 3/3) were implanted bilaterally into the left and right striatum (coordinates for the tip of the probe: AP=+0.8 mm (to bregma), ML=+/−1.7 mm (to midline), DV=−4.0 mm (to dura) with an angle of 0° and the incisor bar set at 0.0 mm. All coordinates were based on “The mouse brain in stereotaxic coordinates” by Paxinos and Franklin (2008). The probes were attached to the skull with a stainless-steel screw and dental cement.
The monosodium salt of the compound of formula (I) was formulated in sterilized tap water at concentrations (with respect to the non-salt form) of 0.2 and 4 mg/mL for oral dosing at 5 mL/kg; 1 mg/kg and 20 mg/kg, respectively.
The MetaQuant microdialysis probes were connected with flexible PEEK tubing (Western Analytical Products Inc. USA; PK005-020) to a microperfusion pump (Harvard) and perfused with a slow flow of artificial CSF (perfusate), containing 147 mM NaCl, 3.0 mM KCl, 1.2 mM CaCl2, and 1.2 mM MgCl2, at a flow rate of 0.12 μL/min and a carrier flow of UP+0.02 M FA+0.04% ascorbic acid at 0.8 μL/min. After a minimum of two hours of prestabilisation, microdialysis samples were collected in 60 minute intervals. Following collection of two baseline samples, the compound of formula (I) (1 or 20 mg/kg in sterilised tap water) was administered orally at t=0 minutes. […]
Microdialysate samples from MetaQuant probes contained a nominal volume of 55.2 μL dialysate. Levels of the compound of formula (I) in MetaQuant microdialysate samples were quantified by LC-MS/MS. […]
Suitable in-run calibration curves were fitted using weighted (1/x) regression and the sample concentrations were determined using these calibration curves. […]

For `CC(C)n1ccc(S(=O)(=O)NC(=O)Nc2c3c(cc4c2CCC4)CCC3)n1` [compound of formula (I)], the “average peak levels in left and right striatal dialysate” value was 12 to 13 nM (1 mg/kg oral, at 5 hours after administration) and 201 to 243 nM (20 mg/kg oral, at 6 hours after administration). Besides, the “time of average peak levels in striatal dialysate after compound administration” value runs as follows: (1 mg/kg oral) 5 h; (20 mg/kg oral) 6 h.

(Values after US20220409586A1, “TREATMENT AND PREVENTION OF NEUROINFLAMMATION OR AN INFLAMMATORY BRAIN DISORDER” (Inflazome Limited, priority 2019, published 2022).)
